Columns and labels:
umbrella sedge = assay: Test C flood test plant response rating 0 to 100; type: in vivo, Cyperus difformis; conditions: for Plant response rating (0 to 100), Umbrella sedge: under POSTEMERGENCE head (flood test species); for Plant response rating Umbrella sedge: flood test species listed under POSTEMERGENCE, 0 to 100 scale
Procedure, shortened: (§1)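 Compounds in non-phytotoxic solvent applied preemergence to sandy loam one day after planting, postemergence at the 1–4 leaf stage, or to ~2.5 cm floodwater over silt loam.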

rape = assay: Test C preemergence/postemergence greenhouse plant response rating 0 to 100; type: in vivo, Brassica napus; conditions: POSTEMERGENCE; for Plant response rating, Rape: 0 to 100 scale
Procedure, shortened: as §1

morningglory = assay: as above; type: in vivo, Ipomoea hederacea; conditions: POSTEMERGENCE; for Plant response rating, Morningglory: 0 to 100 scale
Procedure, shortened: as §1

purple nutsedge = assay: Test B preemergence/postemergence greenhouse plant response rating 0 to 10; type: in vivo, Cyperus rotundus; conditions: 0 to 10 scale
Procedure, shortened: (§2)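 Test chemicals were sprayed onto freshly planted seed and, concurrently, onto young plants between the one and four leaf stage. After a twelve- to sixteen-day greenhouse period, each species was visually compared with untreated controls.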

velvetleaf [1] = assay: Test C preemergence/postemergence greenhouse plant response rating 0 to 100; type: in vivo, Abutilon theophrasti; conditions: POSTEMERGENCE; for Plant response rating, Velvetleaf: 0 to 100 scale
Procedure, shortened: as §1

lambsquarters [2] = assay: as above; type: in vivo, Chenopodium album; conditions: POSTEMERGENCE; for Plant response rating Lambsquarters: 0 to 100 scale
Procedure, shortened: as §1

corn = assay: as above; type: in vivo, Zea mays; conditions: POSTEMERGENCE; for Plant response rating, Corn: 0 to 100 scale
Procedure, shortened: as §1

soybean [3] = assay: as above; type: in vivo, Glycine max; conditions: POSTEMERGENCE; for Plant response rating, Soybean: 0 to 100 scale
Procedure, shortened: as §1

velvetleaf [4] = assay: Test B preemergence/postemergence greenhouse plant response rating 0 to 10; type: in vivo, Abutilon theophrasti; conditions: 0 to 10 scale
Procedure, shortened: as §2

sugar beet = assay: Test C preemergence/postemergence greenhouse plant response rating 0 to 100; type: in vivo, Beta vulgaris; conditions: POSTEMERGENCE; for Plant response rating, Sugar beet: 0 to 100 scale
Procedure, shortened: as §1

soybean [5] = assay: Test B preemergence/postemergence greenhouse plant response rating 0 to 10; type: in vivo, Glycine max; conditions: 0 to 10 scale
Procedure, shortened: as §2

barley = assay: Test C preemergence/postemergence greenhouse plant response rating 0 to 100; type: in vivo, Hordeum vulgare; conditions: POSTEMERGENCE; for Plant response rating Barley Igri: 0 to 100 scale
Procedure, shortened: as §1

rice = assay: Test B preemergence/postemergence greenhouse plant response rating 0 to 10; type: in vivo, Oryza sativa; conditions: 0 to 10 scale
Procedure, shortened: as §2

cotton = assay: as above; type: in vivo, Gossypium hirsutum; conditions: 0 to 10 scale
Procedure, shortened: as §2

lambsquarters [6] = assay: as above; type: in vivo, Chenopodium album; conditions: 0 to 10 scale
Procedure, shortened: as §2

wild buckwheat = assay: as above; type: in vivo, Polygonum convolvulus; conditions: 0 to 10 scale
Procedure, shortened: as §2

sorghum = assay: Test C preemergence/postemergence greenhouse plant response rating 0 to 100; type: in vivo, Sorghum bicolor; conditions: POSTEMERGENCE; for Plant response rating, Sorghum: 0 to 100 scale
Procedure, shortened: as §1

cheatgrass = assay: Test B preemergence/postemergence greenhouse plant response rating 0 to 10; type: in vivo, Bromus secalinus; conditions: 0 to 10 scale
Procedure, shortened: as §2

CC(C)OC(=O)COc1cc(-c2nn3c(c2Cl)CCCC3)c(F)cc1Cl [Compound 39]
Plant response rating (0 to 100), Umbrella sedge (umbrella sedge; Rate 16 g/ha): 0 | Plant response rating (0 to 100), Umbrella sedge (umbrella sedge; Rate 31 g/ha): 0 | Plant response rating Umbrella sedge (umbrella sedge; 62 g/ha): 60 | Plant response rating Umbrella sedge (umbrella sedge; 125 g/ha): 70 | Plant response rating, Rape (rape; 62 g/ha): 60 | Plant response rating, Rape (rape; 125 g/ha): 70 | Plant response rating (0 to 100), Rape (rape; Rate 16 g/ha): 20 | Plant response rating (0 to 100), Rape (rape; Rate 31 g/ha): 50 | Plant response rating, Morningglory (morningglory; 62 g/ha): 100 | Plant response rating, Morningglory (morningglory; 125 g/ha): 100 | Plant response rating (0 to 100), Morningglory (morningglory; Rate 16 g/ha): 60 | Plant response rating (0 to 100), Morningglory (morningglory; Rate 31 g/ha): 100 | Plant response rating, Nutsedge (purple nutsedge; POSTEMERGENCE, Rate 50 g/ha): 5 | Plant response rating, Nutsedge (purple nutsedge; PREEMERGENCE, Rate 50 g/ha): 0 | Plant response rating, Nutsedge (purple nutsedge; Rate 200 g/ha, POSTEMERGENCE): 4 | Plant response rating, Nutsedge (purple nutsedge; Rate 200 g/ha, PREEMERGENCE): 0 | Plant response rating, Velvetleaf (velvetleaf [1]; 62 g/ha): 100 | Plant response rating, Velvetleaf (velvetleaf [1]; 125 g/ha): 100 | Plant response rating (0 to 100), Velvetleaf (velvetleaf [1]; Rate 16 g/ha): 100 | Plant response rating (0 to 100), Velvetleaf (velvetleaf [1]; Rate 31 g/ha): 100 | Plant response rating Lambsquarters (lambsquarters [2]; 62 g/ha): 100 | Plant response rating Lambsquarters (lambsquarters [2]; 125 g/ha): 100 | Plant response rating (0 to 100), Lambsquarters (lambsquarters [2]; Rate 16 g/ha): 70 | Plant response rating (0 to 100), Lambsquarters (lambsquarters [2]; Rate 31 g/ha): 100 | Plant response rating, Corn (corn; 62 g/ha): 30 | Plant response rating, Corn (corn; 125 g/ha): 30 | Plant response rating (0 to 100), Corn (corn; Rate 16 g/ha): 20 | Plant response rating (0 to 100), Corn (corn; Rate 31 g/ha): 30 | Plant response rating, Soybean (soybean [3]; 62 g/ha): 60 | Plant response rating, Soybean (soybean [3]; 125 g/ha): 70 | Plant response rating (0 to 100), Soybean (soybean [3]; Rate 16 g/ha): 30 | Plant response rating (0 to 100), Soybean (soybean [3]; Rate 31 g/ha): 50 | Plant response rating, Velvetleaf (velvetleaf [4]; POSTEMERGENCE, Rate 50 g/ha): 9 | Plant response rating, Velvetleaf (velvetleaf [4]; PREEMERGENCE, Rate 50 g/ha): 2 | Plant response rating, Velvetleaf (velvetleaf [4]; Rate 200 g/ha, POSTEMERGENCE): 10 | Plant response rating, Velvetleaf (velvetleaf [4]; Rate 200 g/ha, PREEMERGENCE): 4 | Plant response rating, Sugar beet (sugar beet; 62 g/ha): 100 | Plant response rating, Sugar beet (sugar beet; 125 g/ha): 100 | Plant response rating (0 to 100), Sugar beet (sugar beet; Rate 16 g/ha): 100 | Plant response rating (0 to 100), Sugar beet (sugar beet; Rate 31 g/ha): 100 | Plant response rating, Soybean (soybean [5]; POSTEMERGENCE, Rate 50 g/ha): 2 | Plant response rating, Soybean (soybean [5]; PREEMERGENCE, Rate 50 g/ha): 0 | Plant response rating, Soybean (soybean [5]; Rate 200 g/ha, POSTEMERGENCE): 4 | Plant response rating, Soybean (soybean [5]; Rate 200 g/ha, PREEMERGENCE): 0 | Plant response rating Barley Igri (barley; 62 g/ha): 30 | Plant response rating Barley Igri (barley; 125 g/ha): 40 | Plant response rating (0 to 100), Barley Igri (barley; Rate 16 g/ha): 20 | Plant response rating (0 to 100), Barley Igri (barley; Rate 31 g/ha): 30 | Plant response rating, Rice (rice; POSTEMERGENCE, Rate 50 g/ha): 4 | Plant response rating, Rice (rice; PREEMERGENCE, Rate 50 g/ha): 0 | Plant response rating, Rice (rice; Rate 200 g/ha, POSTEMERGENCE): 6 | Plant response rating, Rice (rice; Rate 200 g/ha, PREEMERGENCE): 0 | Plant response rating, Cotton (cotton; POSTEMERGENCE, Rate 50 g/ha): 10 | Plant response rating, Cotton (cotton; POSTEMERGENCE, Rate 200 g/ha): 10 | Plant response rating, Cotton (cotton; PREEMERGENCE, Rate 50 g/ha): 0 | Plant response rating, Cotton (cotton; Rate 200 g/ha, PREEMERGENCE): 0 | Plant response rating, Lambsquarter (lambsquarters [6]; POSTEMERGENCE, Rate 50 g/ha): 9 | Plant response rating, Lambsquarter (lambsquarters [6]; PREEMERGENCE, Rate 50 g/ha): 10 | Plant response rating, Lambsquarter (lambsquarters [6]; Rate 200 g/ha, POSTEMERGENCE): 10 | Plant response rating, Lambsquarter (lambsquarters [6]; Rate 200 g/ha, PREEMERGENCE): 10 | Plant response rating, Wild buckwheat (wild buckwheat; POSTEMERGENCE, Rate 50 g/ha): 10 | Plant response rating, Wild buckwheat (wild buckwheat; PREEMERGENCE, Rate 50 g/ha): 10 | Plant response rating, Wild buckwheat (wild buckwheat; Rate 200 g/ha, POSTEMERGENCE): 10 | Plant response rating, Wild buckwheat (wild buckwheat; Rate 200 g/ha, PREEMERGENCE): 10 | Plant response rating, Sorghum (sorghum; 62 g/ha): 50 | Plant response rating, Sorghum (sorghum; 125 g/ha): 60 | Plant response rating (0 to 100), Sorghum (sorghum; Rate 16 g/ha): 20 | Plant response rating (0 to 100), Sorghum (sorghum; Rate 31 g/ha): 30 | Plant response rating, Cheatgrass (cheatgrass; POSTEMERGENCE, Rate 50 g/ha): 4 | Plant response rating, Cheatgrass (cheatgrass; POSTEMERGENCE, Rate 200 g/ha): 4 | Plant response rating, Cheatgrass (cheatgrass; PREEMERGENCE, Rate 50 g/ha): 0 | Plant response rating, Cheatgrass (cheatgrass; Rate 200 g/ha, PREEMERGENCE): 2
